In patent US12145923B2, “Tetrahydroisoquinoline compound, preparation method therefor, pharmaceutical composition containing same, and use thereof” (SHANGHAI INSTITUTE OF MATERIA MEDICA, CHINESE ACADEMY OF …, priority 2018, dated 2024) one finds inhibition data, which are given here for twelve compounds.

By inhibition is commonly meant the percentage by which the read-out fell short of the control.

The assay has as its target Human PDE4D catalytic domain (Homo sapiens (Human), UniProt Q08499). As to the kind of experiment: Scintillation Proximity Assay (SPA), inhibition of PDE4D catalytic domain activity. The format is biochemical. The following applies: read-out: PDE4D enzyme activity inhibition rate %.

Read-outs that look alike come from different tables or passages of the source.

Chain of Human PDE4D catalytic domain (Q08499 386-715): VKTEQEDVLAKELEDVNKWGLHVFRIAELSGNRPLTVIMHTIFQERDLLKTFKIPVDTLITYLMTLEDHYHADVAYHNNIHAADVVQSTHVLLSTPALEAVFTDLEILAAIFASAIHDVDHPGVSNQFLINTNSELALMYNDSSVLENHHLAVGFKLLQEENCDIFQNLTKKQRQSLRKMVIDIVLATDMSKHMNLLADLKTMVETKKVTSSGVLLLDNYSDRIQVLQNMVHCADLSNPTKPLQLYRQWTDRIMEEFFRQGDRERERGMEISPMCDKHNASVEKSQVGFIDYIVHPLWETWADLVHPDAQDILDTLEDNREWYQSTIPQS

As to `COC(=O)c1cc2c(cc1OC)[C@H](CCc1c[nH]c3ccc(OC)cc13)N(C=O)CC2` [(S)-C67, methyl-(S)-2-formyl-7-methoxy-1-(2-(5-methoxy-1H-indol-3-yl)ethyl)-1,2,3,4-tetrahydroisoquinoline-6-carboxylate], the inhibition at 1 µM stood at 85.9%. For the compound `CNC(=O)c1cc2c(cc1OC)CCN(C=O)[C@H]2CCc1c[nH]c2ccc(OC)cc12` [(S)-C69, (S)-2-formyl-6-methoxy-1-(2-(5-methoxy-1H-indol-3-yl)ethyl)-N-methyl-1,2,3,4-tetrahydroisoquinoline-7-carboxamide], under “Compound concentration: 1 μM”, the inhibition at 1 µM worked out at 80.5%.

For `CCOc1cc2c(cc1OC)CCN(C(=O)C(F)F)[C@H]2CCc1c[nH]c2ccc(OC)cc12` [(S)-C59, (S)-7-ethoxy-1-(2-(5-methoxy-1H-indol-3-yl)ethyl)-6-methoxy-3,4-dihydroisoquinolin-2(1H)-2,2-difluoroethane-1-one], the inhibition at 1 µM (Compound concentration: 1 μM) turned out to be 42.4%. In the case of `CCOc1cc2c(cc1OC)CCN(C(=O)C(F)(F)F)[C@H]2CCc1c[nH]c2ccc(OC)cc12` [(S)-C54, (S)-7-ethoxy-1-(2-(5-methoxy-1H-indol-3-yl)ethyl)-6-methoxy-3,4-dihydroisoquinoline-2(1H)-trifluoroethane-1-one], where the note is “Compound concentration: 1 μM”, the inhibition at 1 µM was 46%. Turning to `COc1ccc2[nH]cc(CC[C@H]3c4cc(C(N)=O)c(OC)cc4CCN3C=O)c2c1` [(S)-C70, (S)-2-formyl-6-methoxy-1-(2-(5-methoxy-1H-indol-3-yl)ethyl)-1,2,3,4-tetrahydroisoquinoline-7-carboxamide], where the note is “Compound concentration: 1 μM”, the inhibition at 1 µM came to 83.8%. With `COC(=O)c1cc2c(cc1OC)CCN(C=O)[C@H]2CCc1c[nH]c2ccc(OC)cc12` [(S)-C66, methyl-(S)-2-formyl-6-methoxy-1-(2-(5-methoxy-1H-indol-3-yl)ethyl)-1,2,3,4-tetrahydroisoquinoline-7-carboxylate], the inhibition at 1 µM is 88.4%. For `COc1ccc2[nH]cc(CC[C@H]3c4cc(C(F)F)c(OC)cc4CCN3C=O)c2c1` [(S)-C71, (S)-7-difluoromethyl-1-(2-(5-methoxy-1H-indol-3-yl)ethyl)-6-methoxy-3,4-dihydroisoquinoline-2(1H)-formaldehyde], the inhibition at 1 µM was 81.8%. Turning to `CCOc1cc2c(cc1OC)CCN(S(=O)(=O)c1ccccc1)[C@H]2CCc1c[nH]c2ccc(OC)cc12` [(S)-C47, (S)-7-ethoxy-6-methoxy-1-(2-(5-methoxy-1H-indol-3-yl)ethyl)-2-phenylsulfonyl-1,2,3,4-tetrahydroisoquinoline], the inhibition at 1 µM (Compound concentration: 1 μM) was 49.4%. The same measure, in the same setting: with `CCOc1cc2c(cc1OC)CCN(S(=O)(=O)c1ccc(OC)cc1)[C@H]2CCc1c[nH]c2ccc(OC)cc12` [(S)-C60, (S)-7-ethoxy-6-methoxy-1-(2-(5-methoxy-1H-indol-3-yl)ethyl)-2-(4-methoxyphenyl)sulfonyl-1,2,3,4-tetrahydroisoquinoline] the figure was 42%; with `CCOc1cc2c(cc1OC)CCN(S(=O)(=O)c1ccc(Br)c(F)c1)[C@H]2CCc1c[nH]c2ccc(OC)cc12` [(S)-C56, (S)-7-ethoxy-6-methoxy-1-(2-(5-methoxy-1H-indol-3-yl)ethyl)-2-(3-fluoro-4-bromophenyl) sulfonyl-1,2,3,4-tetrahydroisoquinoline], 66.4%; with `CCOc1cc2c(cc1OC)CCN(S(=O)(=O)CC)[C@H]2CCc1c[nH]c2ccc(OC)cc12` [(S)-C53, (S)-7-ethoxy-6-methoxy-1-(2-(5-methoxy-1H-indol-3-yl)ethyl)-2-ethylsulfonyl-1,2,3,4-tetrahydroisoquinoline], 56.3%. On the same count and under the same terms, the same measure for `CCOc1cc2c(cc1OC)CCN(S(=O)(=O)c1ccc(F)cc1F)[C@H]2CCc1c[nH]c2ccc(OC)cc12` [(S)-C52, (S)-7-ethoxy-6-methoxy-1-(2-(5-methoxy-1H-indol-3-yl)ethyl)-2-(2,4-difluorophenyl)sulfonyl-1,2,3,4-tetrahydroisoquinoline]: 36.8%.
